Tests used:
redroot pigweed = assay: Test A pre-/postemergence greenhouse test; type: in vivo, Amaranthus retroflexus; settings: for Pigweed plant response rating: 0 to 100 scale
Summary of the method: (§1)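 Greenhouse herbicide screen, pre- and postemergence in parallel. Soil: loam plus sand. Formulation: non-phytotoxic solvent mix with surfactant. Postemergence stage: one to two leaves, 2–10 cm height. Evaluation: visual injury, compared with untreated controls, about 10 days after treatment.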

corn = assay: Test A pre-/postemergence greenhouse test; type: in vivo, Zea mays; settings: for Corn plant response rating: 0 to 100 scale
Summary of the method: as §1

blackgrass = assay: Test C pre-/postemergence test; type: in vivo, Alopecurus myosuroides
Summary of the method: (§2)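 Compounds in a non-phytotoxic solvent with surfactant applied preemergence to seeded pots and, at the same time, postemergence to plants 2–18 cm tall (1- to 4-leaf stage). Paddy tests: pots flooded to 3 cm, compound applied into the water, depth held throughout.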

wheat = assay: Test C pre-/postemergence test; type: in vivo, Triticum aestivum; settings: Preemergence
Summary of the method: as §2

wild oat = assay: Test C pre-/postemergence test; type: in vivo, Avena fatua; settings: Preemergence
Summary of the method: as §2

catchweed bedstraw = assay: Test C pre-/postemergence test; type: in vivo, Galium aparine; settings: Preemergence
Summary of the method: as §2

bermudagrass = assay: Test C pre-/postemergence test; type: in vivo, Cynodon dactylon
Summary of the method: as §2

Surinam grass = assay: Test C pre-/postemergence test; type: in vivo, Brachiaria decumbens; settings: Preemergence
Summary of the method: as §2

crabgrass = assay: Test C pre-/postemergence test; type: in vivo, Digitaria sanguinalis; settings: Preemergence
Summary of the method: as §2

kochia = assay: Test C pre-/postemergence test; type: in vivo, Kochia scoparia; settings: Preemergence
Summary of the method: as §2

eastern black nightshade = assay: Test C pre-/postemergence test; type: in vivo, Solanum ptycanthum; settings: Preemergence
Summary of the method: as §2

pigweed = assay: Test C pre-/postemergence test; type: in vivo, Amaranthus retroflexus; settings: Preemergence
Summary of the method: as §2

[1] = test system: common (oilseed) sunflower; assay: Test C pre-/postemergence test; type: in vivo, Helianthus annuus; settings: Preemergence
Summary of the method: as §2

velvetleaf = assay: Test C pre-/postemergence test; type: in vivo, Abutilon theophrasti; settings: Preemergence
Summary of the method: as §2

rice = assay: Test C flooded paddy test; type: in vivo, Oryza sativa; settings: Flood
Summary of the method: (§3)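 Test compounds are applied straight into paddy water held 3 cm above the soil surface, with that flood maintained for the whole test. After 13 to 15 days in the greenhouse, each species is scored visually relative to controls.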

duck salad = assay: Test C flooded paddy test; type: in vivo, Heteranthera limosa; settings: Flood
Summary of the method: as §3

barnyardgrass = assay: Test C flooded paddy test; type: in vivo, Echinochloa crus-galli; settings: Flood
Summary of the method: as §3

[2] = Postemergence, 125 g ai/ha, 0 is no effect, 100 is complete control
[3] = Postemergence, 500 g ai/ha, 0 is no effect, 100 is complete control
[4] = Preemergence, 125 g ai/ha, 0 no effect, 100 complete control
[5] = Preemergence, 500 g ai/ha, 0 to 100 scale where 0 is no effect and 100 is complete control
[6] = Preemergence, 31 g ai/ha, scale 0 to 100 (0 no effect, 100 complete control)
[7] = preemergence, 125 g ai/ha, scale 0 (no effect) to 100 (complete control)
[8] = 31 g ai/ha, scale 0 to 100 (0 no effect, 100 complete control)
[9] = 62 g ai/ha, scale 0 to 100, 0 no effect, 100 complete control, 13 to 15 days
[10] = 125 g ai/ha, scale 0 to 100, 0 no effect, 100 complete control, 13 to 15 days
[11] = 250 g ai/ha, scale 0 to 100, 0 no effect, 100 complete control, 13 to 15 days

Q: With `Cc1cc[n+]([O-])c([S+]([O-])Cc2c(C(F)(F)F)nn(C)c2OCC(F)(F)F)c1` (racemic) [Compound 30] as the compound, how does the “Pigweed plant response rating” value (redroot pigweed; [2]) read?
A: 90

Q: And the “Pigweed plant response rating” value (redroot pigweed; [3])?
A: 100

Q: What about the “Pigweed plant response rating” value (redroot pigweed; [4]) of the same compound?
A: 100

Q: What about the “Plant response rating, Pigweed” value (redroot pigweed; [5]) of the same compound?
A: 100

Q: What about the “Corn plant response rating” value (corn; [2]) of the same compound?
A: 50

Q: What about the “Corn plant response rating” value (corn; [3]) of the same compound?
A: 60

Q: What about the “Corn plant response rating” value (corn; [4]) of the same compound?
A: 0

Q: What about the “Plant response rating, Corn” value (corn; [5]) of the same compound?
A: 70

Q: And the “Blackgrass plant response rating” value (blackgrass; 62 g ai/ha, Preemergence, scale 0 to 100)?
A: 100

Q: What about the “Plant response rating, Blackgrass” value (blackgrass; [6]) of the same compound?
A: 80

Q: And the “Plant response rating (0 to 100), Blackgrass” value (blackgrass; Preemergence, 250 g ai/ha)?
A: 100

Q: And the “Blackgrass plant response rating” value (blackgrass; [7])?
A: 100

Q: What about the “Wheat plant response rating” value (wheat; 62 g ai/ha, scale 0 to 100) of the same compound?
A: 25

Q: And the “Plant response rating, Wheat” value (wheat; [8])?
A: 0

Q: What about the “Oat, Wild plant response rating” value (wild oat; 62 g ai/ha, scale 0 to 100) of the same compound?
A: 60

Q: And the “Plant response rating, Oat, Wild” value (wild oat; [8])?
A: 10

Q: What about the “Galium plant response rating” value (catchweed bedstraw; 62 g ai/ha, scale 0 to 100) of the same compound?
A: 100

Q: What about the “Plant response rating, Galium” value (catchweed bedstraw; [8]) of the same compound?
A: 100

Q: What about the “Plant response rating (0 to 100), Galium” value (catchweed bedstraw; 250 g ai/ha) of the same compound?
A: 100

Q: What about the “Bermudagrass plant response rating” value (bermudagrass; 62 g ai/ha, Preemergence, scale 0 to 100 (0 no effect, 100 complete control)) of the same compound?
A: 100

Q: What about the “Plant response rating, Bermudagrass” value (bermudagrass; [6]) of the same compound?
A: 100

Q: And the “Plant response rating (0 to 100), Bermudagrass” value (bermudagrass; Preemergence, 250 g ai/ha)?
A: 100

Q: What about the “Bermudagrass plant response rating” value (bermudagrass; [7]) of the same compound?
A: 100

Q: What about the “Surinam Grass plant response rating” value (Surinam grass; 62 g ai/ha, scale 0 to 100) of the same compound?
A: 100

Q: And the “Plant response rating, Surinam Grass” value (Surinam grass; [8])?
A: 60

Q: What about the “Crabgrass, Large plant response rating” value (crabgrass; 62 g ai/ha, scale 0 to 100) of the same compound?
A: 98

Q: What about the “Plant response rating, Crabgrass, Large” value (crabgrass; [8]) of the same compound?
A: 98

Q: What about the “Plant response rating (0 to 100), Crabgrass, Large” value (crabgrass; 250 g ai/ha) of the same compound?
A: 100

Q: What about the “Kochia plant response rating” value (kochia; 62 g ai/ha, scale 0 to 100) of the same compound?
A: 100

Q: What about the “Plant response rating, Kochia” value (kochia; [8]) of the same compound?
A: 100

Q: And the “Nightshade plant response rating” value (eastern black nightshade; 62 g ai/ha, scale 0 to 100)?
A: 100

Q: What about the “Plant response rating, Nightshade” value (eastern black nightshade; [8]) of the same compound?
A: 100

Q: What about the “Pigweed plant response rating” value (pigweed; 62 g ai/ha, scale 0 to 100) of the same compound?
A: 100

Q: And the “Plant response rating, Pigweed” value (pigweed; [8])?
A: 100

Q: What about the “Sunflower plant response rating” value ([1]; 62 g ai/ha, scale 0 to 100) of the same compound?
A: 70

Q: What about the “Plant response rating, Sunflower” value [1, 8] of the same compound?
A: 40

Q: What about the “Velvetleaf plant response rating” value (velvetleaf; 62 g ai/ha, scale 0 to 100) of the same compound?
A: 100

Q: What about the “Plant response rating, Velvetleaf” value (velvetleaf; [8]) of the same compound?
A: 70

Q: And the “Plant response rating, Rice” value (rice; [8])?
A: 0

Q: And the “Plant response rating, Rice” value (rice; [9])?
A: 0

Q: And the “Plant response rating, Rice” value (rice; [10])?
A: 20

Q: What about the “Plant response rating, Rice” value (rice; [11]) of the same compound?
A: 80

Q: What about the “Plant response rating, Ducksalad” value (duck salad; [8]) of the same compound?
A: 65

Q: What about the “Plant response rating, Ducksalad” value (duck salad; [9]) of the same compound?
A: 75

Q: And the “Plant response rating, Ducksalad” value (duck salad; [10])?
A: 100

Q: And the “Plant response rating, Ducksalad” value (duck salad; [11])?
A: 100

Q: And the “Plant response rating, Barnyardgrass” value (barnyardgrass; [8])?
A: 0

Q: What about the “Plant response rating, Barnyardgrass” value (barnyardgrass; [9]) of the same compound?
A: 0

Q: And the “Plant response rating, Barnyardgrass” value (barnyardgrass; [10])?
A: 20

Q: What about the “Plant response rating, Barnyardgrass” value (barnyardgrass; [11]) of the same compound?
A: 65
